Experimental data: PMC6274539, “Photoactivatable Caged Prodrugs of VEGFR-2 Kinase Inhibitors” (Molecules, 2016)

How the values were obtained:
Experiment in all cases: kinase profiling, radioactive filter binding assay
Format in all cases: biochemical
EPH-B3 = EPH-B3 (Homo sapiens, UniProt P54753); conditions: 0.1 µM compound, assay duplicates; read-out: residual activity of EPH-B3, mean percentage activity
Protocol: (§1) The used method was a radioactive filter binding assay using ^33P ATP, for details see references. The substances were dissolved in DMSO at tested concentration of 0.1 µM. The mean percentage residual kinase activity and standard deviations of assay duplicates were determined. Analyses were performed by the International Center for Kinase Profiling at the University of Dundee, UK.

PKA = PKA (Homo sapiens, UniProt P17612); conditions: 0.1 µM compound, assay duplicates; read-out: residual activity of PKA, mean percentage activity
Protocol: as §1

FGF-R1 = FGF-R1 (Homo sapiens, UniProt P11362); conditions: 0.1 µM compound, assay duplicates; read-out: residual activity of FGF-R1, mean percentage activity
Protocol: as §1

IGF1-R = IGF1-R (Homo sapiens, UniProt P08069); conditions: 0.1 µM compound, assay duplicates; read-out: residual activity of IGF1-R, mean percentage activity
Protocol: as §1

PKCa = PKCa (Homo sapiens, UniProt P17252); conditions: 0.1 µM compound, assay duplicates; read-out: residual activity of PKCa, mean percentage activity
Protocol: as §1

p38a MAPK = p38a MAPK (Homo sapiens, UniProt Q16539); conditions: 0.1 µM compound, assay duplicates; read-out: residual activity of p38a MAPK, mean percentage activity
Protocol: as §1

JNK2 = JNK2 (Homo sapiens, UniProt P45984); conditions: 0.1 µM compound, assay duplicates; read-out: residual activity of JNK2, mean percentage activity
Protocol: as §1

RSK1 = RSK1 (Homo sapiens, UniProt Q15418); conditions: 0.1 µM compound, assay duplicates; read-out: residual activity of RSK1, mean percentage activity
Protocol: as §1

PKC zeta = PKC zeta (Homo sapiens, UniProt Q05513); conditions: 0.1 µM compound, assay duplicates; read-out: residual activity of PKC zeta, mean percentage activity
Protocol: as §1

EPH A2 = EPH A2 (Homo sapiens, UniProt P29317); conditions: 0.1 µM compound, assay duplicates; read-out: residual activity of EPH A2, mean percentage activity
Protocol: as §1

MNK2 = MNK2 (Homo sapiens, UniProt Q9HBH9); conditions: 0.1 µM compound, assay duplicates; read-out: residual activity of MNK2, mean percentage activity
Protocol: as §1

EFK2 = EFK2 (Homo sapiens, UniProt O00418); conditions: 0.1 µM compound, assay duplicates; read-out: residual activity of EFK2, mean percentage activity
Protocol: as §1

IKKb = IKKb (Homo sapiens, UniProt O14920); conditions: 0.1 µM compound, assay duplicates; read-out: residual activity of IKKb, mean percentage activity
Protocol: as §1

PAK6 = PAK6 (Homo sapiens, UniProt Q9NQU5); conditions: 0.1 µM compound, assay duplicates; read-out: residual activity of PAK6, mean percentage activity
Protocol: as §1

CK2 = CK2 (Homo sapiens, UniProt P68400); conditions: 0.1 µM compound, assay duplicates; read-out: residual activity of CK2, mean percentage activity
Protocol: as §1

IKK epsilon (14231) = IKK epsilon (14231) (Homo sapiens, UniProt Q14164); conditions: 0.1 µM compound, assay duplicates; read-out: residual activity of IKK epsilon (14231), mean percentage activity
Protocol: as §1

MARK3 = MARK3 (Homo sapiens, UniProt P27448); conditions: 0.1 µM compound, assay duplicates; read-out: residual activity of MARK3, mean percentage activity
Protocol: as §1

AMPK = conditions: 0.1 µM compound, assay duplicates
Protocol: as §1

S6K1 = S6K1 (Homo sapiens, UniProt P23443); conditions: 0.1 µM compound, assay duplicates; read-out: residual activity of S6K1, mean percentage activity
Protocol: as §1

JNK1 = JNK1 (Homo sapiens, UniProt P45983); conditions: 0.1 µM compound, assay duplicates; read-out: residual activity of JNK1, mean percentage activity
Protocol: as §1

DYRK1A = DYRK1A (Homo sapiens, UniProt Q13627); conditions: 0.1 µM compound, assay duplicates; read-out: residual activity of DYRK1A, mean percentage activity
Protocol: as §1

ERK8 = ERK8 (Homo sapiens, UniProt Q8TD08); conditions: 0.1 µM compound, assay duplicates; read-out: residual activity of ERK8, mean percentage activity
Protocol: as §1

PIM1 = PIM1 (Homo sapiens, UniProt P11309); conditions: 0.1 µM compound, assay duplicates; read-out: residual activity of PIM1, mean percentage activity
Protocol: as §1

PRAK = PRAK (Homo sapiens, UniProt Q8IW41); conditions: 0.1 µM compound, assay duplicates; read-out: residual activity of PRAK, mean percentage activity
Protocol: as §1

PLK1 = PLK1 (Homo sapiens, UniProt P53350); conditions: 0.1 µM compound, assay duplicates; read-out: residual activity of PLK1, mean percentage activity
Protocol: as §1

P38b MAPK = P38b MAPK (Homo sapiens, UniProt Q15759); conditions: 0.1 µM compound, assay duplicates; read-out: residual activity of P38b MAPK, mean percentage activity
Protocol: as §1

SYK = SYK (Homo sapiens, UniProt P43405); conditions: 0.1 µM compound, assay duplicates; read-out: residual activity of SYK, mean percentage activity
Protocol: as §1

CDK2-Cyclin A = CDK2-Cyclin A (Homo sapiens, UniProt P24941); conditions: 0.1 µM compound, assay duplicates; read-out: residual activity of CDK2-Cyclin A, mean percentage activity
Protocol: as §1

Chain of PLK1 (P53350 whole entry): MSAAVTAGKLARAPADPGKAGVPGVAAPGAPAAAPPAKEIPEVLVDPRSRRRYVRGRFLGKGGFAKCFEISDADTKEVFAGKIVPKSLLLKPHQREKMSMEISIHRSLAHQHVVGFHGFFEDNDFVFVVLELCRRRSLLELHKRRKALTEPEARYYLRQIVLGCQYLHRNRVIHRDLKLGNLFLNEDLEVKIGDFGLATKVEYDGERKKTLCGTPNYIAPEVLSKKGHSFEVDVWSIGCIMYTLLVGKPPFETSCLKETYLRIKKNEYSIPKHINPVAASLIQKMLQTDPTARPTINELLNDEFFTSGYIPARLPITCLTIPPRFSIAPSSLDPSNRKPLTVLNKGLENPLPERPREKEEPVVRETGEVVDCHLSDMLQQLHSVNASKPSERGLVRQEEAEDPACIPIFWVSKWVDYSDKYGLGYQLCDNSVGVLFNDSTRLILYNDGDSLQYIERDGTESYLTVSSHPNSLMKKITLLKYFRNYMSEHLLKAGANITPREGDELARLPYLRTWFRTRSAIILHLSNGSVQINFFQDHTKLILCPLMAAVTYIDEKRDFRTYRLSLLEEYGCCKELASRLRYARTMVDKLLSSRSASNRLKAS
Chain of CK2 (P68400 whole entry): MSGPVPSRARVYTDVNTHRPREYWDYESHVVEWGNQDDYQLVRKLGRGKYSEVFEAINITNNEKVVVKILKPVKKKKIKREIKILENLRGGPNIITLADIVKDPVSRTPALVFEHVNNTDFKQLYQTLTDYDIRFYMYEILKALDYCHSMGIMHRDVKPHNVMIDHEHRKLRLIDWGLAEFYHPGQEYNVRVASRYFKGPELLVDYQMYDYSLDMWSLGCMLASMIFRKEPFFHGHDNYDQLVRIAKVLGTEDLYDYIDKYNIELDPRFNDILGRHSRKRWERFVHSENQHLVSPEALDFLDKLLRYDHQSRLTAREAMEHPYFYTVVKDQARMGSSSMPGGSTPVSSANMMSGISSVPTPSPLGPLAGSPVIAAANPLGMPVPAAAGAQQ
Chain of JNK2 (P45984 whole entry): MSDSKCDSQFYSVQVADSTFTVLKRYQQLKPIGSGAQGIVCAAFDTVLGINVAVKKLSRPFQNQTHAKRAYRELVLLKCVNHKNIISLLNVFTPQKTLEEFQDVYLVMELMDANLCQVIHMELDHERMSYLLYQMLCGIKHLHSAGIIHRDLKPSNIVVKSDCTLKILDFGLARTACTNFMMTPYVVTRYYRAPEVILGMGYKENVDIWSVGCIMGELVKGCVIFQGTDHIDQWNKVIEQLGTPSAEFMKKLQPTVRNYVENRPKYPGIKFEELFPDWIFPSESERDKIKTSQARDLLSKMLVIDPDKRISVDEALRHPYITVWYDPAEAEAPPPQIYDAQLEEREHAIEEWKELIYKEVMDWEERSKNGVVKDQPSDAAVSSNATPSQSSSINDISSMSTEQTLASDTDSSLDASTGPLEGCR
Chain of PKC zeta (Q05513 whole entry): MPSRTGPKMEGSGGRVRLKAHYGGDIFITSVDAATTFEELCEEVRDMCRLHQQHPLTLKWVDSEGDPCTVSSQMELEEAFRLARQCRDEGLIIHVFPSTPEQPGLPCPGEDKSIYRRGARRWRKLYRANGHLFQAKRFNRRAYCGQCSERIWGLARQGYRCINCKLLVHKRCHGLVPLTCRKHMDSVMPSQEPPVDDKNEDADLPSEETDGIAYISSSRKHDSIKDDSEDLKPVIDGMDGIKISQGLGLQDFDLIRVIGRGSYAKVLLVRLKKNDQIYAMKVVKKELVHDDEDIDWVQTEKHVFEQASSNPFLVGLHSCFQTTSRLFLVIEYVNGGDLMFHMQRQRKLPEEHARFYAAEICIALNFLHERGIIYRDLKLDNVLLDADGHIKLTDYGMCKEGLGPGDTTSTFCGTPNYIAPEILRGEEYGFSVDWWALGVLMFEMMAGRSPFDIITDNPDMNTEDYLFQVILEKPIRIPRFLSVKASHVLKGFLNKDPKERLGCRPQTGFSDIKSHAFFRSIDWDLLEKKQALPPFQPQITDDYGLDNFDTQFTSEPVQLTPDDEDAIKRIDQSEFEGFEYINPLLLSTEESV
Chain of EPH-B3 (P54753 34-998): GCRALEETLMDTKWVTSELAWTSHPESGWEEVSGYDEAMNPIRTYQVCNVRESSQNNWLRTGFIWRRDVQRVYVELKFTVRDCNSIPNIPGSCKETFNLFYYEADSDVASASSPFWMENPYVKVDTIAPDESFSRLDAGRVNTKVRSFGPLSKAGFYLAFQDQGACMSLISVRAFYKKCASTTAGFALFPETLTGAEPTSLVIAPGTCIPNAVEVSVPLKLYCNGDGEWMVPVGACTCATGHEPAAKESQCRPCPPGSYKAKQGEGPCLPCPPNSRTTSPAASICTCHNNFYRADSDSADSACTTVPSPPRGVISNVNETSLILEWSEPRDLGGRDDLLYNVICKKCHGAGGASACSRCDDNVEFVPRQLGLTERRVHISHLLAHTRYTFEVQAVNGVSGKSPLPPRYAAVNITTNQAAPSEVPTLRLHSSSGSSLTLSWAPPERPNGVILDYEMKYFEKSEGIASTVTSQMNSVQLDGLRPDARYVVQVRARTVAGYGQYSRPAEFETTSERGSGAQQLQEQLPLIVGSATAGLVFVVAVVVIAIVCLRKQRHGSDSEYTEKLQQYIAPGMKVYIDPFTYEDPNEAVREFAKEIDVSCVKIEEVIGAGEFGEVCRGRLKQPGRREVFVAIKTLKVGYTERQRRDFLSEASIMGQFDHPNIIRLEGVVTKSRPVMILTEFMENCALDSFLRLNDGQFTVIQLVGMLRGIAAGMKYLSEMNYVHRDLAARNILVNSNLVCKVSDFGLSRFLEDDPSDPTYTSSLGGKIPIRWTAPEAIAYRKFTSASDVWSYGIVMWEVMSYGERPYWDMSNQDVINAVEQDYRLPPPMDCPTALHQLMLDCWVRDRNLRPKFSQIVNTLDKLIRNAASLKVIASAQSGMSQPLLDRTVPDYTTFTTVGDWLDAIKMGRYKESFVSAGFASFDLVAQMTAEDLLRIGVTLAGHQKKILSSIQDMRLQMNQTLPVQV
Chain of IGF1-R (P08069 31-1367): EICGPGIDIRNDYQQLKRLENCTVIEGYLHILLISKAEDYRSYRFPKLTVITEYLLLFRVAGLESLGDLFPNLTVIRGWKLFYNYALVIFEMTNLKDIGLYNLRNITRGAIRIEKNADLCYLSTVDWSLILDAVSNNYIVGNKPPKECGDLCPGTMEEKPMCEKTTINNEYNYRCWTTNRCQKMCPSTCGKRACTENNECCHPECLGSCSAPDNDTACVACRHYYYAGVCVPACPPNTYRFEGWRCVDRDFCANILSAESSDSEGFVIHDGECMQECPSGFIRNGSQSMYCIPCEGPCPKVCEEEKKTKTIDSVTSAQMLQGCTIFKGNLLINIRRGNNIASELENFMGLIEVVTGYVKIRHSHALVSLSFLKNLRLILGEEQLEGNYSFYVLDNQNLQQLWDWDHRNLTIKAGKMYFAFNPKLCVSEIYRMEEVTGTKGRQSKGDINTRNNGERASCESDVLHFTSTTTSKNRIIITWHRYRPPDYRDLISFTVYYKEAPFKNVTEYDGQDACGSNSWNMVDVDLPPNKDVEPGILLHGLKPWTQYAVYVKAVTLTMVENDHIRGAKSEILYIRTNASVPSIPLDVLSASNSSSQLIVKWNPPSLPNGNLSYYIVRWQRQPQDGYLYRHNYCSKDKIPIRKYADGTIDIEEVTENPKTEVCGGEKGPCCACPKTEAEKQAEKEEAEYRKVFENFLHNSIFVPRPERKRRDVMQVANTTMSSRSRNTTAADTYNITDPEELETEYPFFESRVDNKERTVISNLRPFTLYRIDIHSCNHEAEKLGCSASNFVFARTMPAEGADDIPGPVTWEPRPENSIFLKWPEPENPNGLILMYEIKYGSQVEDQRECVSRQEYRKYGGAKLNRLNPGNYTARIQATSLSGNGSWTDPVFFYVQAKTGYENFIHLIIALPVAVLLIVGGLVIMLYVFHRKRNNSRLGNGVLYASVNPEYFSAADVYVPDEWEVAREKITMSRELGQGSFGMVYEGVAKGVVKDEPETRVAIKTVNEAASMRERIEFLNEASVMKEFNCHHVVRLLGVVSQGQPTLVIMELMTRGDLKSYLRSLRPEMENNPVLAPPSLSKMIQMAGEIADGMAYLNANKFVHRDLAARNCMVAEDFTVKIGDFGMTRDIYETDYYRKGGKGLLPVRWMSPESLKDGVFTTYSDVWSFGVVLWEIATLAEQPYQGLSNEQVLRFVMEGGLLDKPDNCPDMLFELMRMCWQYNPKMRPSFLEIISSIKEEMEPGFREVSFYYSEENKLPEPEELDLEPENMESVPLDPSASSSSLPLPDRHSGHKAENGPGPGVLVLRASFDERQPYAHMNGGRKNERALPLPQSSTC
Chain of RSK1 (Q15418 whole entry): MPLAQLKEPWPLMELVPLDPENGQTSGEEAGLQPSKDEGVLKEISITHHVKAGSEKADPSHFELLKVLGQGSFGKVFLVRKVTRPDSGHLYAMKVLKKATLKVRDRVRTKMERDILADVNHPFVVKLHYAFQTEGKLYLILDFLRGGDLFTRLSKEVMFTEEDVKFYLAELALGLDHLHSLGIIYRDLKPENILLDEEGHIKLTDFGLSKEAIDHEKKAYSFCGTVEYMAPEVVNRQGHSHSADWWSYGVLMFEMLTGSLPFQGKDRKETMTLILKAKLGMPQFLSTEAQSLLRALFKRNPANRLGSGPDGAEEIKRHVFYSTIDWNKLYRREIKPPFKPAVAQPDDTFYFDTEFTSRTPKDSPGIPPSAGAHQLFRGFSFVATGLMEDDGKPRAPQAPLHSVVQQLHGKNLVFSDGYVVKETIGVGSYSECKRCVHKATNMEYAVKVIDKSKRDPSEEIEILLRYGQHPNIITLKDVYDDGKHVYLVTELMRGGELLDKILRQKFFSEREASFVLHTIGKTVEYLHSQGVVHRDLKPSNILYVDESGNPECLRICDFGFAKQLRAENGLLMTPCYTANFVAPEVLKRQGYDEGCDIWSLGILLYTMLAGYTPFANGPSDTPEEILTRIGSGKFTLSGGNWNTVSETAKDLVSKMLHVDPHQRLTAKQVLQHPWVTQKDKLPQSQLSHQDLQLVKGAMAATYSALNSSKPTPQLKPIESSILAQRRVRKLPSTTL

COc1cc(C2=C(c3c[nH]c4ccccc34)C(=O)NC2=O)cc(OC)c1OC [Compound 1, 3-(1H-Indol-3-yl)-4-(3,4,5-trimethoxyphenyl)-1H-pyrrole-2,5-dione]
remaining activity at 0.1 µM (EPH-B3): 104%
remaining activity at 0.1 µM (PKA): 93%
remaining activity at 0.1 µM (FGF-R1): 69%
remaining activity at 0.1 µM (IGF1-R): 90%
remaining activity at 0.1 µM (PKCa): 113%
remaining activity at 0.1 µM (p38a MAPK): 89%
remaining activity at 0.1 µM (JNK2): 78%
remaining activity at 0.1 µM (RSK1): 96%
remaining activity at 0.1 µM (PKC zeta): 102%
remaining activity at 0.1 µM (EPH A2): 104%
remaining activity at 0.1 µM (MNK2): 90%
remaining activity at 0.1 µM (EFK2): 104%
remaining activity at 0.1 µM (IKKb): 102%
remaining activity at 0.1 µM (PAK6): 97%
remaining activity at 0.1 µM (CK2): 94%
remaining activity at 0.1 µM (IKK epsilon (14231)): 85%
remaining activity at 0.1 µM (MARK3): 90%
residual activity of AMPK, mean percentage activity (AMPK): 78%
remaining activity at 0.1 µM (S6K1): 65%
remaining activity at 0.1 µM (JNK1): 96%
remaining activity at 0.1 µM (DYRK1A): 73%
remaining activity at 0.1 µM (ERK8): 46%
remaining activity at 0.1 µM (PIM1): 14%
remaining activity at 0.1 µM (PRAK): 91%
remaining activity at 0.1 µM (PLK1): 79%
remaining activity at 0.1 µM (P38b MAPK): 86%
remaining activity at 0.1 µM (SYK): 85%
remaining activity at 0.1 µM (CDK2-Cyclin A): 59%

COc1cc2c3c(c4c5ccccc5[nH]c4c2c(OC)c1OC)C(=O)NC3=O [Compound 3, 5,6,7-Trimethoxybenzo[a]pyrrolo[3,4-c]carbazole-1,3(2H,8H)-dione]
remaining activity at 0.1 µM (EPH-B3): 133%
remaining activity at 0.1 µM (PKA): 90%
remaining activity at 0.1 µM (FGF-R1): 92%
remaining activity at 0.1 µM (IGF1-R): 65%
remaining activity at 0.1 µM (PKCa): 90%
remaining activity at 0.1 µM (p38a MAPK): 78%
remaining activity at 0.1 µM (JNK2): 93%
remaining activity at 0.1 µM (RSK1): 51%
remaining activity at 0.1 µM (PKC zeta): 98%
remaining activity at 0.1 µM (EPH A2): 109%
remaining activity at 0.1 µM (MNK2): 81%
remaining activity at 0.1 µM (EFK2): 109%
remaining activity at 0.1 µM (IKKb): 113%
remaining activity at 0.1 µM (PAK6): 99%
remaining activity at 0.1 µM (CK2): 91%
remaining activity at 0.1 µM (IKK epsilon (14231)): 94%
remaining activity at 0.1 µM (MARK3): 73%
residual activity of AMPK, mean percentage activity (AMPK): 75%
remaining activity at 0.1 µM (S6K1): 28%
remaining activity at 0.1 µM (JNK1): 96%
remaining activity at 0.1 µM (DYRK1A): 26%
remaining activity at 0.1 µM (ERK8): 11%
remaining activity at 0.1 µM (PIM1): 5%
remaining activity at 0.1 µM (PRAK): 85%
remaining activity at 0.1 µM (PLK1): 49%
remaining activity at 0.1 µM (P38b MAPK): 89%
remaining activity at 0.1 µM (SYK): 86%
remaining activity at 0.1 µM (CDK2-Cyclin A): 28%
